How the values were obtained:
[1] = in vitro; details: for Concentration of analyte I-9 / Concentration of analyte PEA / Measured concentration of analyte PEA, 0 min / Measured concentration of analyte PEA, 10 min / Measured concentration of analyte PEA, 20 min / Measured concentration of analyte PEA, 30 min / Measured concentration of analyte PEA, 60 min / % Remaining of Initial (n = 1) / % Remaining of Initial, 0 min / % Remaining of Initial, 10 min / % Remaining of Initial, 20 min / % Remaining of Initial, 30 min / % Remaining of Initial, 60 min: 1 μM; for % Remaining of Initial (n = 1) / % Remaining of Initial, 0 min / % Remaining of Initial, 10 min / % Remaining of Initial, 20 min / % Remaining of Initial, 30 min / % Remaining of Initial, 60 min / microsomal CLint at 1 μM / half-life at 1 μM: microsomes
Summary of the method: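 First, compound was spiked at a final 1 μM into microsomal mixture lacking cofactor and equilibrated at 37° C. Next, cofactor was added to initiate metabolism. Aliquots removed at 0–60 min were stopped with cold formic acid/acetonitrile, centrifuged and measured by LC-MS/MS.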

[2] = in vitro; details: male; for Measured concentration of analyte PEA, 0 min / Measured concentration of analyte PEA, 10 min / Measured concentration of analyte PEA, 20 min / Measured concentration of analyte PEA, 30 min / Measured concentration of analyte PEA, 60 min / % Remaining of Initial, 0 min / % Remaining of Initial, 10 min / % Remaining of Initial, 20 min / % Remaining of Initial, 30 min / % Remaining of Initial, 60 min: 1 μM; for % Remaining of Initial, 0 min / % Remaining of Initial, 10 min / % Remaining of Initial, 20 min / % Remaining of Initial, 30 min / % Remaining of Initial, 60 min / microsomal CLint at 1 μM / half-life at 1 μM: microsomes; for % Remaining of Initial, 0 min: 0 h; for % Remaining of Initial, 30 min: 0.5 h; for % Remaining of Initial, 60 min: 1 h
Summary of the method: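 Half-lives were fitted as single-phase exponential decay of percent remaining relative to time 0, with prodrug and PEA measured by electrospray LC-MS/MS. Reactions at 37° C held 1 μM test article, were started with cofactor and sampled up to 60 minutes into ice-cold acetonitrile with formic acid.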

[3] = male, Sprague-Dawley, rat, 0 min
[4] = male, Sprague-Dawley, rat, 10 min
[5] = male, Sprague-Dawley, rat, 20 min
[6] = male, Sprague-Dawley, rat, 30 min
[7] = male, Sprague-Dawley, rat, 60 min
[8] = male, Sprague-Dawley, rat, 0.5 h

CCCCCCCCCCCCCCCC(=O)NCCOC(=O)CCC(=O)OCC(O)CO (stereo not shown) [Compound I-9]
Concentration of analyte I-9 ([1]; both, human, 0 min): 180 nM
Concentration of analyte PEA ([1]; both, human, 0 min): 830 nM
Measured concentration of analyte PEA, 0 min ([1]; both, human, 0 min): 0.47 µM
Concentration of analyte I-9 ([1]; both, human, 10 min): 2.1 nM
Concentration of analyte PEA ([1]; both, human, 10 min): 600 nM
Measured concentration of analyte PEA, 10 min ([1]; both, human, 10 min): 0.39 µM
Concentration of analyte I-9 ([1]; both, human, 20 min): 0 nM
Concentration of analyte PEA ([1]; both, human, 20 min): 510 nM
Measured concentration of analyte PEA, 20 min ([1]; both, human, 20 min): 0.22 µM
Concentration of analyte I-9 ([1]; both, human, 30 min): 0 nM
Concentration of analyte PEA ([1]; both, human, 30 min): 410 nM
Measured concentration of analyte PEA, 30 min ([1]; both, human, 30 min): 0.16 µM
Concentration of analyte I-9 ([1]; both, human, 60 min): 0 nM
Concentration of analyte PEA ([1]; both, human, 60 min): 200 nM
Measured concentration of analyte PEA, 60 min ([1]; both, human, 60 min): 0.058 µM
% Remaining of Initial (n = 1) ([1]; both, human, 0 h): 100%
% Remaining of Initial, 0 min ([1]; both, human, 0 h): 100%
% Remaining of Initial (n = 1) ([1]; both, human, 10 min): 1.2%
% Remaining of Initial, 10 min ([1]; both, human, 10 min): <1.0%
% Remaining of Initial (n = 1) ([1]; both, human, 20 min): <1.0%
% Remaining of Initial, 20 min ([1]; both, human, 20 min): <1.0%
% Remaining of Initial (n = 1) ([1]; both, human, 0.5 h): <1.0%
% Remaining of Initial, 30 min ([1]; both, human, 0.5 h): <1.0%
% Remaining of Initial (n = 1) ([1]; both, human, 1 h): <1.0%
% Remaining of Initial, 60 min ([1]; both, human, 1 h): <1.0%
microsomal CLint at 1 μM ([1]; both, human, calculated value in parentheses): 888 µL/min/mg
half-life at 1 μM ([1]; both, human, Half-Life): < 10 min
half-life at 1 μM ([1]; both, human, Half-life): < 1 min
half-life at 1 μM ([1]; both, human, Half-life, calculated value in parentheses): 1.6 min
Concentration of analyte I-9 [1, 3]: 210 nM
Concentration of analyte PEA [1, 3]: 350 nM
Measured concentration of analyte PEA, 0 min [1, 3]: 0.22 µM
Concentration of analyte I-9 [1, 4]: 8.5 nM
Concentration of analyte PEA [1, 4]: 160 nM
Measured concentration of analyte PEA, 10 min [1, 4]: 0.066 µM
Concentration of analyte I-9 [1, 5]: 0 nM
Concentration of analyte PEA [1, 5]: 76 nM
Measured concentration of analyte PEA, 20 min [1, 5]: 0.017 µM
Concentration of analyte I-9 [1, 6]: 0 nM
Concentration of analyte PEA [1, 6]: 27 nM
Measured concentration of analyte PEA, 30 min [1, 6]: 0 µM
Concentration of analyte I-9 [1, 7]: 0 nM
Concentration of analyte PEA [1, 7]: 3 nM
Measured concentration of analyte PEA, 60 min [1, 7]: 0 µM
% Remaining of Initial (n = 1) ([1]; male, Sprague-Dawley, rat, 0 h): 100%
% Remaining of Initial, 0 min ([1]; male, Sprague-Dawley, rat, 0 h): 100%
% Remaining of Initial (n = 1) [1, 4]: 4.0%
% Remaining of Initial, 10 min [1, 4]: 1.9%
% Remaining of Initial (n = 1) [1, 5]: <1.0%
% Remaining of Initial, 20 min [1, 5]: <1.0%
% Remaining of Initial (n = 1) [1, 8]: <1.0%
% Remaining of Initial, 30 min [1, 8]: <1.0%
% Remaining of Initial (n = 1) ([1]; male, Sprague-Dawley, rat, 1 h): <1.0%
% Remaining of Initial, 60 min ([1]; male, Sprague-Dawley, rat, 1 h): <1.0%
microsomal CLint at 1 μM ([1]; male, Sprague-Dawley, rat, calculated value in parentheses): 642 µL/min/mg
half-life at 1 μM ([1]; male, Sprague-Dawley, rat, Half-Life): < 10 min
half-life at 1 μM ([1]; male, Sprague-Dawley, rat, Half-life): 1.8 min
half-life at 1 μM ([1]; male, Sprague-Dawley, rat, Half-life, calculated value in parentheses): 2.2 min
Measured concentration of analyte PEA, 0 min ([2]; Beagle, dog): 0.39 µM
Measured concentration of analyte PEA, 10 min ([2]; Beagle, dog): 0.42 µM
Measured concentration of analyte PEA, 20 min ([2]; Beagle, dog): 0.32 µM
Measured concentration of analyte PEA, 30 min ([2]; Beagle, dog): 0.26 µM
Measured concentration of analyte PEA, 60 min ([2]; Beagle, dog): 0.18 µM
% Remaining of Initial, 0 min ([2]; Beagle, dog): 100%
% Remaining of Initial, 10 min ([2]; Beagle, dog): <1.0%
% Remaining of Initial, 20 min ([2]; Beagle, dog): <1.0%
% Remaining of Initial, 30 min ([2]; Beagle, dog): <1.0%
% Remaining of Initial, 60 min ([2]; Beagle, dog): <1.0%
microsomal CLint at 1 μM ([2]; Beagle, dog): > 1380 µL/min/mg
half-life at 1 μM ([2]; Beagle, dog): < 1 min
Measured concentration of analyte PEA, 0 min ([2]; CD-1, mouse): 0.52 µM
Measured concentration of analyte PEA, 10 min ([2]; CD-1, mouse): 0.29 µM
Measured concentration of analyte PEA, 20 min ([2]; CD-1, mouse): 0.18 µM
Measured concentration of analyte PEA, 30 min ([2]; CD-1, mouse): 0.11 µM
Measured concentration of analyte PEA, 60 min ([2]; CD-1, mouse): 0.036 µM
% Remaining of Initial, 0 min ([2]; CD-1, mouse): 100%
% Remaining of Initial, 10 min ([2]; CD-1, mouse): <1.0%
% Remaining of Initial, 20 min ([2]; CD-1, mouse): <1.0%
% Remaining of Initial, 30 min ([2]; CD-1, mouse): <1.0%
% Remaining of Initial, 60 min ([2]; CD-1, mouse): <1.0%
microsomal CLint at 1 μM ([2]; CD-1, mouse): > 1380 µL/min/mg
half-life at 1 μM ([2]; CD-1, mouse): < 1 min

Reference: patent US11547681B2, “N-acylethanolamide derivatives and uses thereof” (ELIEM THERAPEUTICS, INC., priority 2016, dated 2023)
